pIC50: −log10 of the molar value. Several values for one entry are separate records, joined by “and”; a condition that tells them apart may be missing. Identical values can stand only once.
System: LG0703-F948-PDC complex spheroid viability
Assay: Anticancer human tumor LG0703-F948-PDC patient-derived lung adenocarcinoma cell line growth inhibition [RAS]
Details: for viability, T/C: stronger effect = lower value
Outline: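 Agents were tested in combination matrices in half-log decrements from a top concentration at or near clinical Cmax (10 microM if undetermined). Targets were multi-cell spheroids of tumour lines plus HUVEC and MSC stromal cells.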
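Note: spheroids exposed to agents for 7 days.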
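Throughout, for viability, T/C: 100% = DMSO vehicle wells.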

CCN1CCN(Cc2ccc(Nc3ncc(F)c(-c4cc(F)c5nc(C)n(C(C)C)c5c4)n3)nc2)CC1 + C#Cc1c(F)ccc2cc(O)cc(-c3ncc4c(N5CC6CCC(C5)N6)nc(OCC56CCCN5CC(F)C6)nc4c3F)c12
pIC50 (curve of first compound, second compound 0.0316 µM): < 6.00
pIC50 (curve of first compound, second compound 0.1 µM): < 6.00
pIC50 (curve of first compound, second compound 0.316 µM): < 6.00
pIC50 (curve of first compound, second compound 1 µM): < 6.00
pIC50 (curve of first compound, second compound 3.16 µM): < 6.00
pIC50 (curve of first compound, second compound 10 µM): 8.14
viability, T/C (second compound 0.0316 µM, first compound 0.00316 µM): 114%
viability, T/C (second compound 0.0316 µM, first compound 0.01 µM): 84%
viability, T/C (second compound 0.0316 µM, first compound 0.0316 µM): 78.3%
viability, T/C (second compound 0.0316 µM, first compound 0.1 µM): 92.2%
viability, T/C (second compound 0.0316 µM, first compound 0.316 µM): 82.7%
viability, T/C (second compound 0.0316 µM, first compound 1 µM): 79.8%
viability, T/C (second compound 0.1 µM, first compound 0.00316 µM): 119%
viability, T/C (second compound 0.1 µM, first compound 0.01 µM): 90.3%
viability, T/C (second compound 0.1 µM, first compound 0.0316 µM): 92.1%
viability, T/C (second compound 0.1 µM, first compound 0.1 µM): 90.5%
viability, T/C (second compound 0.1 µM, first compound 0.316 µM): 74%
viability, T/C (second compound 0.1 µM, first compound 1 µM): 69.7%
viability, T/C (second compound 0.316 µM, first compound 0.00316 µM): 103%
viability, T/C (second compound 0.316 µM, first compound 0.01 µM): 99.5%
viability, T/C (second compound 0.316 µM, first compound 0.0316 µM): 84.5%
viability, T/C (second compound 0.316 µM, first compound 0.1 µM): 81.1%
viability, T/C (second compound 0.316 µM, first compound 0.316 µM): 75.5%
viability, T/C (second compound 0.316 µM, first compound 1 µM): 70%
viability, T/C (second compound 1 µM, first compound 0.00316 µM): 84%
viability, T/C (second compound 1 µM, first compound 0.01 µM): 77.7%
viability, T/C (second compound 1 µM, first compound 0.0316 µM): 68.5%
viability, T/C (second compound 1 µM, first compound 0.1 µM): 68.7%
viability, T/C (second compound 1 µM, first compound 0.316 µM): 77.6%
viability, T/C (second compound 1 µM, first compound 1 µM): 64.1%
viability, T/C (second compound 3.16 µM, first compound 0.00316 µM): 73.2%
viability, T/C (second compound 3.16 µM, first compound 0.01 µM): 71.9%
viability, T/C (second compound 3.16 µM, first compound 0.0316 µM): 56.8%
viability, T/C (second compound 3.16 µM, first compound 0.1 µM): 57%
viability, T/C (second compound 3.16 µM, first compound 0.316 µM): 71.3%
viability, T/C (second compound 3.16 µM, first compound 1 µM): 45%
viability, T/C (second compound 10 µM, first compound 0.00316 µM): 62.5%
viability, T/C (second compound 10 µM, first compound 0.01 µM): 44.3%
viability, T/C (second compound 10 µM, first compound 0.0316 µM): 47.7%
viability, T/C (second compound 10 µM, first compound 0.1 µM): 47.5%
viability, T/C (second compound 10 µM, first compound 0.316 µM): 49.5%
viability, T/C (second compound 10 µM, first compound 1 µM): 36.9%

C#Cc1c(F)ccc2cc(O)cc(-c3ncc4c(N5CC6CCC(C5)N6)nc(OCC56CCCN5CC(F)C6)nc4c3F)c12 (centres undefined)
viability, T/C (compound 0.1 µM): 98.8% [middle of 8 runs]
viability, T/C (compound 0.316 µM): 85.7% [middle of 8 runs]
viability, T/C (compound 3.16 µM): 61% [middle of 8 runs]
viability, T/C (compound 10 µM): 56.6% [middle of 8 runs]
pIC50 (compound alone, run of 09/09/2024): < 5.00 and 5.03

Cc1nc(N2CCC3(CC2)COC(C)C3N)c(CO)nc1Sc1ccnc(N)c1Cl (centres undefined)
viability, T/C (compound 0.0316 µM): 91.6% and 86.5% and 84.2%
viability, T/C (compound 0.1 µM): 68.1% and 83.2% and 66.4%
viability, T/C (compound 0.316 µM): 50.8% and 48.3% and 51.7%
viability, T/C (compound 1 µM): 36.9% and 35.6% and 34.5%
viability, T/C (compound 3.16 µM): 22% and 21.2% and 25.2%
viability, T/C (compound 10 µM): 11.4% and 12.8% and 12.1%
pIC50 (curve of compound): 6.46 and 6.40 and 6.47
